Laboratory results as given in patent US20250122222A1, “HETEROCYCLIC COMPOUNDS AND METHODS OF USE” (AMGEN INC., priority 2021, published 2025).

System: Phosphorylation of ERK1/2 in AsPC-1 cells
Assay: Phospho-ERK1/2 MSD assay
Assay type: cell-based
Settings: Homo sapiens, ASPC1, read-out: 2 h p-ERK (AsPC-1 cells), IC50 (μM), 2 hours compound treatment
Protocol: Sixteen hours prior to compound treatment, AsPC-1 cells were seeded in 96-well cell culture plates at a density of 25,000 cells/well and incubated at 37° C., 5% CO2. A compound dose-response titration was diluted in growth media, added to appropriate wells of a cell culture plate, and then incubated at 37° C., 5% CO2 for 2 hours.

SMILES	IC50 [µM]
CCc1c(F)ccc2cc(O)cc(-c3ncc4c(N5CCCOCC5)nc(OC[C@]56CCCN5C[C@H](F)C6)nc4c3F)c12 [Example 41, 5-ethyl-6-fluoro-4-(8-fluoro-2-(((2R, 7aR)-2-fluorotetra-hydro-1H-pyrrol-izin-7a(5H)-yl)-methoxy)-4-(1,4-oxazepan-4-yl)pyr-ido[4,3-d]pyrimi-din-7-yl)naphtha-len-2-ol]	0.035
CCc1c(F)ccc2cc(O)cc(-c3ncc4c(N5CCOC[C@H](O)C5)nc(OC[C@@]56CCCN5C[C@H](F)C6)nc4c3F)c12 [Example 26, (R)-4-(7-(8-Ethyl-7-fluoro-3-hydroxynaphthalen-1-yl)-8-fluoro-2-(((2R,7aS)-2-fluorotetrahydro-1H-pyrrolizin-7a(5H)-yl)methoxy)pyrido [4,3-d]pyrimidin-4-yl)-1,4-oxazepan-6-ol]	2.27
CCc1c(F)ccc2cc(O)cc(-c3ncc4c(N5CCOC[C@@H](O)C5)nc(OC[C@@]56CCCN5C[C@H](F)C6)nc4c3F)c12 [Example 25, (S)-4-(7-(8-Ethyl-7-fluoro-3-hydroxynaphthalen-1-yl)-8-fluoro-2-(((2R,7aS)-2-fluorotetrahydro-1H-pyrrolizin-7a(5H)-yl)methoxy)pyrido [4,3-d]pyrimidin-4-yl)-1,4-oxazepan-6-ol]	0.292
CCc1c(F)ccc2cc(O)cc(-c3ncc4c(N5CCOCC(C)(O)C5)nc(OC[C@@]56CCCN5C[C@H](F)C6)nc4c3F)c12 (single isomer, unassigned) [Example 69]	0.004

Molecular target: His-tagged KRAS G12D protein (Homo sapiens, UniProt P01116, G12D)
Sequence (P01116 1-188 isoform P01116-2 G12D): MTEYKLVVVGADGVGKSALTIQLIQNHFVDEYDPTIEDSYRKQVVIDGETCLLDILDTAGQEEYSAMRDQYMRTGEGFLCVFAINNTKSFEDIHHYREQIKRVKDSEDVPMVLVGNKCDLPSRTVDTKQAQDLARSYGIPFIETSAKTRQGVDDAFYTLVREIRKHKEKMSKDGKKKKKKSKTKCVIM
Assay: KRAS G12D TR-FRET assay (binding)
Settings: biotinylated KRPep-2d substrate, GDP in assay buffer
Protocol: The plate was incubated for 30 minutes at room temperature. Biotinylated KRPep-2d substrate (Amgen) was diluted to 20 nM in Assay Buffer and 2 L was added to all wells and incubated for 1 hour at room temperature. Detection Reagent (0.4 nM LANCE Eu-W1024 Anti-6xHis (Perkin Elmer AD0401), 5 nM streptavidin-d^2 (Cisbio 610SADLA)) was prepared in Assay Buffer, then 4 μL was added to the plate and incubated for 1 hour at room temperature.

SMILES	IC50 [nM]
CCc1c(F)ccc2cc(O)cc(-c3ncc4c(N5CCOC(C(F)F)C5)nc(OC[C@@]56CCCN5C[C@H](F)C6)nc4c3F)c12 (stereo partly drawn) [Example 75, 4-(4-(2-(Difluoromethyl)morpholino)-8-fluoro-2-(((2R,7aS)-2-fluorotetrahydro-1H-pyrrolizin-7a(5H)-yl)methoxy)pyrido[4,3-d]pyrimidin-7-yl)-5-ethyl-6-fluoronaphthalen-2-ol]	52
CCc1c(F)ccc2cc(O)cc(-c3ncc4c(N5CCOC(CC#N)C5)nc(OC[C@@]56CCCN5C[C@H](F)C6)nc4c3F)c12 (stereo partly drawn) [Example 65, 2-(4-(7-(8-Ethyl-7-fluoro-3-hydroxy-naphthalen-1-yl)-8-fluoro-2-(((2R,7aS)-2-fluorotetrahydro-1H-pyrrolizin-7a(5H)-yl)methoxy)-pyrido[4,3-d]pyrim-idin-4-yl)morpholin-2-yl)acetonitrile]	43
CCc1c(F)ccc2cc(O)cc(-c3ncc4c(N5CCOCC(C(N)=O)C5)nc(OC[C@@]56CCCN5C[C@H](F)C6)nc4c3F)c12 (single isomer, unassigned) [Example 46]	17
CCc1c(F)ccc2cc(O)cc(-c3ncc4c(N5C[C@H]6CCC[C@@H](C5)O6)nc(OC[C@@]56CCCN5C[C@H](F)C6)nc4c3F)c12 [Example 64, 4-(4-((1R,5S)-9-oxa-3-azabicyclo [3.3.1]nonan-3-yl)-8-fluoro-2-(((2R, 7aS)-2-fluorotetra-hydro-1H-pyrrolizin-7a(5H)-yl)methoxy)-pyrido[4,3-d]pyrim-idin-7-yl)-5-ethyl-6-fluoronaphthalen-2-ol]	44
CCc1c(F)ccc2cc(O)cc(-c3ncc4c(N5CCCOCC5)nc(OCC5(C#N)CCN(C)C5)nc4c3F)c12 (centres unmarked) [Example 33, 3-(((7-(8-ethyl-7-fluoro-3-hydroxynaphthalen-1-yl)-8-fluoro-4-(1,4-oxazepan-4-yl)pyrido[4,3-d]pyrimidin-2-yl)oxy)methyl)-1-methylpyrrolidine-3-carbonitrile]	27
CCc1c(F)ccc2cc(O)cc(-c3ncc4c(N5CCOCC[C@@H]5C)nc(OC[C@@]56CCCN5C[C@H](F)C6)nc4c3F)c12 [Example 55, 5-Ethyl-6-fluoro-4-(8-fluoro-2-(((2R, 7aS)-2-fluorotetra-hydro-1H-pyrrol-izin-7a(5H)-yl)-methoxy)-4-((S)-5-methyl-1,4-oxazepan-4-yl)-pyrido[4,3-d]pyrimidin-7-yl)-naphthalen-2-ol]	7
CCc1c(F)ccc2cc(O)cc(-c3ncc4c(N5CCCOCC5)nc(OCC5(C)CCC(=O)N5)nc4c3F)c12 (centres unmarked) [Example 30, 5-(((7-(8-ethyl-7-fluoro-3-hydroxynaphthalen-1-yl)-8-fluoro-4-(1,4-oxazepan-4-yl)pyrido[4,3-d]pyrimidin-2-yl)oxy)methyl)-5-methylpyrrolidin-2-one]	37
CCc1c(F)ccc2cc(O)cc(-c3ncc4c(N5CCOCC[C@H]5C)nc(OC[C@@]56CCCN5C[C@H](F)C6)nc4c3F)c12 [Example 54, 5-Ethyl-6-fluoro-4-(8-fluoro-2-(((2R,7aS)-2-fluorotetrahydro-1H-pyrrolizin-7a(5H)-yl)methoxy)-4-((R)-5-methyl-1,4-oxazepan-4-yl)pyrido[4,3-d]pyrimidin-7-yl)naphthalen-2-ol]	7
CCc1c(F)ccc2cc(O)cc(-c3ncc4c(N5CCCOCC5)nc(OCC5(C#N)CCNC5)nc4c3F)c12 (centres unmarked) [Example 31, 3-(((7-(8-ethyl-7-fluoro-3-hydroxynaphthalen-1-yl)-8-fluoro-4-(1,4-oxazepan-4-yl)pyrido[4,3-d]pyrimidin-2-yl)oxy)methyl) pyrrolidine-3-carbonitrile]	11
CCc1c(F)ccc2cc(O)cc(-c3ncc4c(N5CCOC(CO)C5)nc(OC[C@@]56CCCN5C[C@H](F)C6)nc4c3F)c12 (stereo partly drawn) [Example 60, 5-Ethyl-6-fluoro-4-(8-fluoro-2-(((2R, 7aS)-2-fluorotetra-hydro-1H-pyrrol-izin-7a(5H)-yl)-methoxy)-4-(2-(hydroxymethyl)-morpholino)pyrido [4,3-d]pyrimidin-7-yl)naphthalen-2-ol]	15
CCc1c(F)ccc2cc(O)cc(-c3ncc4c(N5CCSC(CO)C5)nc(OC[C@@]56CCCN5C[C@H](F)C6)nc4c3F)c12 (stereo partly drawn) [Example 40, 5-Ethyl-6-fluoro-4-(8-fluoro-2-(((2R,7aS)-2-fluorotetrahydro-1H-pyrrolizin-7a(5H)-yl)methoxy)-4-(2-(hydroxymethyl)thiomorpholino)pyrido[4,3-d]pyrimidin-7-yl)naphthalen-2-ol]	6
CCc1c(F)ccc2cc(O)cc(-c3ncc4c(N5CCCOCC5)nc(OCC5(CO)CC5)nc4c3F)c12 [Example 77, 5-Ethyl-6-fluoro-4-(8-fluoro-2-((1-(hydroxymethyl)cyclopropyl)methoxy)-4-(1,4-oxazepan-4-yl)pyrido[4,3-d]pyrimidin-7-yl)naphthalen-2-ol]	41
CCc1c(F)ccc2cc(O)cc(-c3ncc4c(N5CC6COCC(C5)C6O)nc(OC[C@@]56CCCN5C[C@H](F)C6)nc4c3F)c12 (stereo partly drawn) [Example 58, 7-(7-(8-Ethyl-7-fluoro-3-hydroxy-naphthalen-1-yl)-8-fluoro-2-(((2R,7aS)-2-fluorotetrahydro-1H-pyrrolizin-7a(5H)-yl)meth-oxy)pyrido[4,3-d]pyrimidin-4-yl)-3-oxa-7-azabicyclo [3.3.1]nonan-9-ol]	14
CCc1c(F)ccc2cc(O)cc(-c3ncc4c(N5CCOCC(C(=O)NC)C5)nc(OC[C@@]56CCCN5C[C@H](F)C6)nc4c3F)c12 (single isomer, unassigned) [Example 44]	26
CCc1c(F)ccc2cc(O)cc(-c3ncc4c(N5CCCOC(C(=O)NC)C5)nc(OC[C@@]56CCCN5C[C@H](F)C6)nc4c3F)c12 (single isomer, unassigned) [Example 42]	2
CCc1c(F)ccc2cc(O)cc(-c3ncc4c(N5CCCOC(C(=O)NC)C5)nc(OC[C@@]56CCCN5C[C@H](F)C6)nc4c3F)c12 (single isomer, unassigned) [Example 43]	249
